Where two headings read alike, the source gives them in different places.
Tests used:
[1] = Tumor cell line cytotoxicity of flavonoid dimers, LCC6MDR; assay type: cell-based, human; conditions: human, LCC6MDR cells, IC50 of compound alone
Summary of the method: (§1)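 LCC6, LCC6MDR and L929 cells seeded at 1×10^4 cells/well and exposed to graded doses of flavonoid dimers. Incubation 72 hrs at 37° C., 5% CO2. Read-out: % survivors.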

[2] = Tumor cell line cytotoxicity of flavonoid dimers, LCC6; assay type: cell-based, human; conditions: human, LCC6 cells, IC50 of compound alone
Summary of the method: as §1

[3] = Cytotoxicity of flavonoid dimers, L929 mouse fibroblast; assay type: cell-based; conditions: mouse, L929 fibroblast cells, IC50 of compound alone, 72 hrs, mouse fibroblast
Summary of the method: as §1

[4] = tested on: LdAG83 promastigotes (wild type); test: In vitro anti-promastigote activity, LdAG83; assay type: cell-based, Leishmania donovani; conditions: read-out: Anti-promastigotes activity (IC50, μM) LdAG83
Description: (§2) Cell Lines and Cell Culture. Promastigotes of Leishmania donovani (wild type LdAG83, pentamidine-resistant LdAG83-PentR50, and SSG-resistant Ld39) and Leishmania major [MHOM/IL/67/JERICHO II (Lm50122), from ATCC] were used in this study.
(§3) In Vitro Anti-Promastigote Activity. The viability of promastigotes was determined by the Cell Titer 96° Aqueous Assay (Promega) that employs a tetrazolium compound (MTS, 2-(4,5-Dimethylthiazol-2-yl-)-5-[3-(carboxymethoxy)phenyl]-2-(4-sulfophenyl)-2H-tetrazolium) and electron coupling reagent, phenazine methosulfate (PMS).^7 Promastigotes were seeded into 96-well flat bottom microtiter plate at 1×10^5 cells per well in a final volume of 100 μL medium and incubated with a series concentration of synthetic flavonoid dimers or known antileishmanials. The parasites were incubated at 27° C. for 72 hrs. Fresh solution of 2 mg/mL MTS and 0.92 mg/mL PMS were prepared in a ratio of 20:1 (MTS:PMS). After 72 hrs incubation, 10 μL of MTS:PMS mixture was added into each well of microtiter plate. The plate was then incubated at 27° C. for 4 hrs for color development. After 4 hrs incubation, the OD values were determined at 490 nm using automatic microtiter plate reader (Bio-Rad).

[5] = tested on: Ld39 promastigotes (SSG-resistant); test: In vitro anti-promastigote activity, Ld39; assay type: cell-based, Leishmania donovani; conditions: read-out: Anti-promastigotes activity (IC50, μM) Ld39
Description: as §2, §3

[6] = tested on: LdAG83PentR50 promastigotes (pentamidine-resistant); test: microbe, parasite or virus in culture; assay type: cell-based, Leishmania donovani; conditions: read-out: Anti-promastigotes activity (IC50, μM) LdAG83PentR50
Description: as §2
No pentamidine or sodium stibogluconate was added to the L. donovani wild type (LdAG83) and L. major wild type (Lm50122). The mouse macrophage cell line, Raw264.7, was used for the determination of the relative toxicity of the compounds of the invention. […] They were maintained at 37° C. in a humidified atmosphere with 5% CO2. The cells were split constantly after a confluent monolayer has been formed. To split cells, the plate was washed briefly with PBS, treated with 0.05% trypsin-EDTA and harvested by centrifugation.
as §3

Raw264.7 cells = test: Cytotoxicity, mouse macrophage Raw264.7; assay type: cell-based
Description: (§4) (a) Mouse Macrophage Raw 264.7 and Primary Mouse PEM Cells. The cytotoxicity assay of reference antileishmanial compounds and the compounds of this invention was performed against mouse macrophage cell line, Raw 264.7 and primary mouse PEM cells in order to calculate the therapeutic index (IC50 value for cytotoxicity of the compounds divided by IC50 value for antileishmanial activity of the compounds). The cells were grown in supplemented DMEM media in an atmosphere of 95% air with 5% CO2 at 37° C. In brief, Raw264.7 cells and PEM cells were seeded into 96-well flat bottom microtiter plate at 1×10^4cells and 2×10^4 cells per well in a final volume of 100 μL media, respectively. A graded dose of flavonoid dimers or antileishmanials was added into wells. The plate was incubated at 37° C. for 72 hrs at the atmosphere 5% CO2 in the air. The % of survivors was determined.

Leishmania promastigotes = test: Anti-promastigote activity over the Leishmania strains; assay type: cell-based, Leishmania donovani, Leishmania major; conditions: for IC50: different Leishmania strains, read-out: Anti-promastigote IC50, range over strains
Description: as §2, §3

Pgp (LCC6MDR cells) = Pgp (LCC6MDR cells) (Homo sapiens, UniProt P08183); test: Cell proliferation assay: Pgp-modulating activity, reversal of anticancer drug resistance in LCC6MDR cells; conditions: for EC50: EC50 of compounds for reversing anticancer drug resistance (nM), Paclitaxel; for Therapeutic index: IC50 of compounds for L929/EC50 of compounds for lowering paclitaxel drug resistance; for RF (Relative Fold), cpd at 0.5 μM: RF = (IC50 without modulator)/(IC50 with 0.5 μM modulator), paclitaxel
Description: Cell Proliferation Assay. 6,000 cells of LCC6 or LCC6MDR and anticancer drugs (paclitaxel, vinblastine, vincristine, doxorubicin and mitoxantrone) were mixed with or without modulators to a final volume of 200 μL in each well of 96-well plates. […] The plates were then incubated for 5 days at 37° C. […] IC50 values were calculated from the dose-response curves of MTS assays (Prism 4.0).

L929 cells = test: Cytotoxicity of flavonoid dimers, L929 mouse fibroblast; assay type: cell-based; conditions: IC50 of compound alone, 72 hrs, mouse fibroblast; read-out: Cytotoxicity (μM) L929
Summary of the method: as §1

[7] = Cytotoxicity over LCC6, LCC6MDR and L929 cell lines; assay type: cell-based, human, mouse; conditions: human, cancer lines LCC6, LCC6MDR and/or L929
Description: (b) Tumor Cell Line Cytotoxicity. The tumor cytotoxicity assays of flavonoid dimers were performed against LCC6, LCC6MDR and L929 cell lines. The cells were grown in supplemented DMEM media in an atmosphere of 95% air and 5% CO2 at 37° C. In brief, LCC6, LCC6MDR and L929 cells were seeded into 96-well flat bottom microtiter plate at 1×10^4 cells per well in a final volume of 100 μL media, respectively. A graded dose of flavonoid dimers was added into wells. The plate was incubated at 37° C. for 72 hrs at the atmosphere 5% CO2 in the air. The % of survivors was determined.

Lm50122 promastigotes = test: In vitro anti-promastigote activity, Lm50122; assay type: cell-based, Leishmania major; conditions: Leishmania major, 72 h, read-out: Anti-promastigotes activity (IC50, μM) Lm50122
Description: as §2, §3

PEM cells = test: Cytotoxicity, primary mouse peritoneal elicited macrophage (PEM); assay type: cell-based
Description: as §4

Ld39 amastigotes = test: In vitro anti-amastigote activity, Ld39 amastigotes in mouse PEM; conditions: for IC50: Leishmania donovani, in Mus musculus
Description: Peritoneal elicited macrophages (PEM) from mouse were obtained as previously described. A round cover slip (12 mm in diameter) was placed into each well of 24-well culture plate. Mouse macrophages were resuspended in supplemented DMEM media containing 10% heat inactivated fetal bovine serum (v/v), 100 U/mL penicillin and 100 μg/mL streptomycin and seeded into each well at a cell density of 1×10^5 cells per 500 μL. Macrophages were allowed to attach overnight and the non-adherent cells were removed by gentle washing twice with unsupplemented DMEM media. […] Non-internalized promastigotes were removed by washing with unsupplemented DMEM media for two times. Infected macrophages were further incubated in 500 μL supplemented DMEM media in the presence or absence of flavonoid dimers or known antileishmanials for 72 hrs at 37° C. After incubation, the cover slips were stained with Giemsa and the amastigotes inside each macrophage (100 macrophages per treatment) were counted under microscope. The percentage of macrophages infected and number of amastigotes per 100 macrophages was enumerated.
The % of infected macrophage and the number of amastigotes per 100 macrophages were counted by staining with Giemsa.

LCC6MDR cells = test: Tumor cell line cytotoxicity of flavonoid dimers, LCC6MDR; assay type: cell-based, human; conditions: IC50 of compound alone, 72 hrs
Summary of the method: as §1

LCC6 cells = test: Tumor cell line cytotoxicity of flavonoid dimers, LCC6; assay type: cell-based, human; conditions: IC50 of compound alone, 72 hrs
Summary of the method: as §1

[8] = Mus musculus, Macrophage, Table 7, cytotoxicity
[9] = cytotoxicity, primary mouse macrophage, 72 hrs
[10] = 72 h, read-out: Ld39 (IC50, mM)
[11] = Leishmania donovani, 72 h, 3 days at 27° C., MTS

Sequence of Pgp (LCC6MDR cells) (P08183 whole entry): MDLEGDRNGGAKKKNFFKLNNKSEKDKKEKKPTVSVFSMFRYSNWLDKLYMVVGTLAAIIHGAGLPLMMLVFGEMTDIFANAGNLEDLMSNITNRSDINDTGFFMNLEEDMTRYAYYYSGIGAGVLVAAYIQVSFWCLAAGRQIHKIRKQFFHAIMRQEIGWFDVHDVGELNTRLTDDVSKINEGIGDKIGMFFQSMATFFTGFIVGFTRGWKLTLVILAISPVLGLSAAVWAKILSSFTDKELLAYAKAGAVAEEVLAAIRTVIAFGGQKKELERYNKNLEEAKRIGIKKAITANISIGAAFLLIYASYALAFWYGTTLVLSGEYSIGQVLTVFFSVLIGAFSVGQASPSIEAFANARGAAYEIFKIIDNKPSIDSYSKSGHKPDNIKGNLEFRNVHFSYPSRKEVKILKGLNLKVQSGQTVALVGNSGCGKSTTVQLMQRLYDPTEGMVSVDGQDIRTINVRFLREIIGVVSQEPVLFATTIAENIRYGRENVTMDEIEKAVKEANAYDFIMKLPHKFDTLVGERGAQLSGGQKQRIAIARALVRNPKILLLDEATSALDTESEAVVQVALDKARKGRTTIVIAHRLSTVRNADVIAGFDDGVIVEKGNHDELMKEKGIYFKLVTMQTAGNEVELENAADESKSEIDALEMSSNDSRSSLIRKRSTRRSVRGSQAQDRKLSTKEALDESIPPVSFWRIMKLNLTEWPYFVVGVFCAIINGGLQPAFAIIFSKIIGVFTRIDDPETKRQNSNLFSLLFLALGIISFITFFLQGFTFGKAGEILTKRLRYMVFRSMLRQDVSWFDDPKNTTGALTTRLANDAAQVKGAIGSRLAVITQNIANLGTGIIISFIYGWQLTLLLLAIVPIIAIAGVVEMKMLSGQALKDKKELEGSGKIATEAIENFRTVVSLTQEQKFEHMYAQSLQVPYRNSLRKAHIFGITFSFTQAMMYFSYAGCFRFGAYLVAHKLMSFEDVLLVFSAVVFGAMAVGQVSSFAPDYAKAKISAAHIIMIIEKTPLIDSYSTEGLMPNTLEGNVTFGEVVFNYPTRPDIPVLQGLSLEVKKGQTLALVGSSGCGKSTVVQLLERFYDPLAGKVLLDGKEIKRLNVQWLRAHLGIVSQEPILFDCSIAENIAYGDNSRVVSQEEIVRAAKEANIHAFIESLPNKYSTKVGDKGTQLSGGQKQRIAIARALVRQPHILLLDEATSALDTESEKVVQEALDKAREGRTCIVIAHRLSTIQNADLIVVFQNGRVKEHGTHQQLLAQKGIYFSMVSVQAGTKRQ

Compound | IC50 at 72 h [1] [µM] | IC50 at 72 h [2] [µM] | IC50 at 72 h [3] [µM] | IC50 ([4]; Leishmania donovani, 72 h) [µM] | IC50 ([5]; Leishmania donovani, 72 h) [µM] | IC50 ([6]; Leishmania donovani, 72 h) [µM] | IC50 (Raw264.7 cells; Mus musculus, RAW264.7, 72 h) [µM] | IC50 (Leishmania promastigotes) [µM] | EC50 (Pgp (LCC6MDR cells); LCC6MDR) [nM] | Therapeutic index (Pgp (LCC6MDR cells)) | RF (Relative Fold), cpd at 0.5 μM (Pgp (LCC6MDR cells); LCC6MDR) | IC50 (Lm50122 promastigotes) [µM] | IC50 (PEM cells; [8]) [µM] | IC50 (PEM cells; [9]) [µM] | IC50 (Ld39 amastigotes; [10]) [mM] | IC50 [5, 11] [µM] | IC50 (Lm50122 promastigotes; 3 days at 27° C., MTS) [µM] | also measured
O=c1cc(-c2ccc(OCCOCCNCCOCCOc3ccc(-c4cc(=O)c5ccccc5o4)cc3)cc2)oc2ccccc12 [Compound 12a, 1,13-Bis[4′-(4H-chromen-4-on-2-yl)phenyl]-1,4,10,13-tetraoxa-7-azamidecane] | 2.4 ± 0.7 | 3.3 ± 1 | 5.9 ± 0.6 | 3.3 | 2.3 | 1.1 | < 4 | < 4 | 305 ± 35 | 19.3 | (72.9) |  |  |  |  |  |  | IC50 (Raw264.7 cells; 72 hrs, listed as 12): 2.1 ± 0.9 µM
CC(C)(C)OC(=O)N(CCOCCOc1ccc(-c2cc(=O)c3ccccc3o2)cc1)CCOCCOc1ccc(-c2cc(=O)c3ccccc3o2)cc1 [Compound 16a, 1,13-Bis[4′-(4H-chromen-4-on-2-yl)phenyl]-N-(tert-butyloxycarbonyl)-1,4,10,13-tetraoxa-7-azamidecane] | 6.2 ± 0.8 | 8 ± 2.5 | < 11.1 | 3.2 | 1.6 | 1.1 | > 100 |  | 320 ± 40 | 34.7 | (11.1) |  |  |  |  |  |  | IC50 (L929 cells): 11.1 µM; IC50 at 72 h [7]: < 8 µM; Ability to restore paclitaxel sensitivity, fold higher than verapamil (Pgp (LCC6MDR cells); 1.0 μM, LCC6MDR): 24 fold
O=c1cc(-c2ccc(OCCOCCN(CCOCCOc3ccc(-c4cc(=O)c5ccccc5o4)cc3)Cc3ccc([N+](=O)[O-])cc3)cc2)oc2ccccc12 [Compound 19, 1,13-Bis[4′-(4H-chromen-4-on-2-yl)phenyl]-N-(4-nitrobenzyl)-1,4,10,13-tetraoxa-7-azamidecane] | > 90 | 86.8 ± 1.8 | 88 ± 6.1 | > 100 | > 100 |  | 70.3 ± 9.7 |  | 189 ± 1 | 465.6 |  | > 100 |  |  |  |  |  | IC50 at 72 h ([7]; mouse, LCC6MDR and L929 cell lines): > 90 µM
O=c1cc(-c2ccc(OCCOCCN(CCOCCOc3ccc(-c4cc(=O)c5ccccc5o4)cc3)Cc3ccncc3)cc2)oc2ccccc12 [Compound 21, 1,13-Bis[4′-(4H-chromen-4-on-2-yl)phenyl]-N-(4-pyridylmethyl)-1,4,10,13-tetraoxa-7-azamidecane] | > 100 | > 100 | 26.4 ± 2.7 | 0.18 ± 0.02 | 0.19 ± 0.03 | 0.13 ± 0.04 | > 100 | 0.13 to 0.35 |  |  | (6.9) | 0.35 ± 0.07 | > 88 | > 88 | 0.00063 ± 0.00012 |  |  | Fold lower anti L. donovani promastigote activity than amphotericin B (Leishmania promastigotes; L. donovani): 2 fold; % of macrophage infected (Ld39 amastigotes; 5 μM, solvent control 100%): 20%; Number of amastigotes per 100 macrophages (Ld39 amastigotes; 5 μM, solvent control 887): 48; IC50 (Ld39 amastigotes; read-out: IC50 against Ld39 amastigotes): 0.00063 mM
O=c1cc(-c2ccc(OCCOCCN(CCOCCOc3ccc(-c4cc(=O)c5ccccc5o4)cc3)Cc3ccccn3)cc2)oc2ccccc12 [Compound 22, 1,13-Bis[4′-(4H-chromen-4-on-2-yl)phenyl]-N-(2-pyridylmethyl)-1,4,10,13-tetraoxa-7-azamidecane] | 29.7 ± 16.4 | 10 ± 1.2 | 10 | 2.3 ± 0.8 | 2.4 ± 1 |  | 53 ± 12.7 | 1.8 to 2.4 |  |  | (15.8) | 1.8 ± 0.6 |  |  |  |  |  | Fold lower leishmanicidal activity than compound 21 (Leishmania promastigotes): about 10 fold
O=C(O)CCC(=O)N(CCOCCOc1ccc(-c2cc(=O)c3ccccc3o2)cc1)CCOCCOc1ccc(-c2cc(=O)c3ccccc3o2)cc1 [Compound 23a, 1,13-Bis[4′-(4H-chromen-4-on-2-yl)phenyl]-N-(4-hydroxy-1,4-dioxobutyl)-1,4,10,13-tetraoxa-7-azamidecane] |  |  |  |  |  |  |  |  |  |  | (1.1) |  |  |  |  |  |  | IC50 (LCC6MDR cells): > 100 µM; IC50 (LCC6 cells): 78.4 ± 8.1 µM; IC50 ([4]; 3 days at 27° C., MTS): > 100 µM; IC50 ([5]; 3 days at 27° C., MTS): > 100 µM; IC50 ([6]; 3 days at 27° C., MTS): 27 µM; IC50 (Raw264.7 cells; 72 hrs): 65 µM
CCCCCCCCCCCCCCCCOP(=O)([O-])OCC[N+](C)(C)C [Miltefosine, reference compound] |  |  |  |  |  | 9.3 ± 2.4 | 20 | 4.3 to 17.3 |  |  |  |  | 75.3 ± 9.4 | 75.3 ± 9.4 | 0.016 ± 0.0064 | 17.3 ± 2.1 | 9.8 ± 2.3 | 
NC[C@@H]1O[C@H](O[C@H]2[C@@H](O)[C@H](O[C@@H]3[C@@H](O)[C@H](N)C[C@H](N)[C@H]3O[C@H]3O[C@H](CO)[C@@H](O)[C@H](O)[C@H]3N)O[C@@H]2CO)[C@H](N)[C@@H](O)[C@@H]1O [Paromomycin, paromomycin, reference compound] |  |  |  |  |  | 85.5 ± 13.5 | > 100 | 24.5 to 94.5 |  |  |  |  | > 100 | > 100 | 0.041 | 24.5 ± 2.4 | 94.5 ± 5.5 | IC50 [4, 11]: 62.6 ± 9.5 µM
N=C(N)c1ccc(OCCCCCOc2ccc(C(=N)N)cc2)cc1 [Pentamidine, reference compound] |  |  |  |  |  | 74.7 | 30 | 5.3 to 74.7 |  |  |  |  | 30.4 ± 10.5 | 30.4 | > 0.03 | 5.3 ± 0.8 | 7.7 ± 1 | IC50 [4, 11]: 16.2 µM
